Measurements: patent US9861593B2, “Method for treating or preventing dry eye disorders using alkylamino-polyhydroxyalkanes” (Dynamis Pharmaceuticals, Inc., priority 2008, dated 2018)

Test system: goblet cells
Test: Goblet cell density in eye tissue of scopolamine-treated rats (dry eye model), PAS-stained thin sections, blinded grader ratings
Assay type: in vivo, Sprague-Dawley male rats
Protocol: Sprague-Dawley male rats (7 weeks old, average weight=444 g) were treated with subcutaneous (SC) scopolamine hydrobromide in normal saline (n=30, 25 mg/kg injected 3× per day) or nothing (n=4). Scopolamine treated animals received either (a) 50 mM meglumine in the drinking water (n=10), (b) a 3× daily eyemist containing 2% by weight of meglumine hydrochloride (n=10) or (c) a 3× daily eyemist of normal saline (n=10). Treatment was for 4.5 weeks. One animal receiving scopolamine and the meglumine eyemist died just prior to the end of the study, and the eye tissues were not analyzed. Animals were euthanized and the eye orbit and surrounding tissue from both eyes were removed and placed in formalin. Tissues were embedded in paraffin, thin sections prepared, and stained with periodic acid Schiff to more easily visualize the goblet cells.
Animals not treated with scopolamine or with scopolamine and a saline eyemist had the lowest levels of goblet cells. […] The difference in goblet cell density between the untreated animals and those treated with oral meglumine was significant for one grader (p=0.04) and approached significance for the other (p=0.07). The meglumine eye mist referred to in Table 1 was obtained from Piedmont Chemical Industries (High Point, N.C.).

## CNC[C@H](O)[C@@H](O)[C@H](O)[C@H](O)CO [oral meg, meglumine]
scopolamine-dosed rats, oral meglumine versus saline eyemist
  extent of regions containing goblet cells (FIG. 1): more extensive regions containing goblet cells
scopolamine-treated rats, 50 mM meglumine in the drinking water, 4.5 weeks
  levels of goblet cells compared with the other groups (in words): highest levels of goblet cells
